We go through seven compounds from patent US20260272878A1, “ADAR1 INHIBITORS AND USES THEREOF” (THE WISTAR INSTITUTE OF ANATOMY AND BIOLOGY, priority 2023, published 2026).

One assay addresses ADAR (Homo sapiens, UniProt P55265). To be noted: literature study; cited from earlier work.
The target in a further assay is T1, ADAR1p110-WT (Homo sapiens, UniProt P55265).
T1 construct: made in house; host or cells: Sf9 cells (baculovirus)
T1 sequence (P55265 1-931 isoform P55265-5): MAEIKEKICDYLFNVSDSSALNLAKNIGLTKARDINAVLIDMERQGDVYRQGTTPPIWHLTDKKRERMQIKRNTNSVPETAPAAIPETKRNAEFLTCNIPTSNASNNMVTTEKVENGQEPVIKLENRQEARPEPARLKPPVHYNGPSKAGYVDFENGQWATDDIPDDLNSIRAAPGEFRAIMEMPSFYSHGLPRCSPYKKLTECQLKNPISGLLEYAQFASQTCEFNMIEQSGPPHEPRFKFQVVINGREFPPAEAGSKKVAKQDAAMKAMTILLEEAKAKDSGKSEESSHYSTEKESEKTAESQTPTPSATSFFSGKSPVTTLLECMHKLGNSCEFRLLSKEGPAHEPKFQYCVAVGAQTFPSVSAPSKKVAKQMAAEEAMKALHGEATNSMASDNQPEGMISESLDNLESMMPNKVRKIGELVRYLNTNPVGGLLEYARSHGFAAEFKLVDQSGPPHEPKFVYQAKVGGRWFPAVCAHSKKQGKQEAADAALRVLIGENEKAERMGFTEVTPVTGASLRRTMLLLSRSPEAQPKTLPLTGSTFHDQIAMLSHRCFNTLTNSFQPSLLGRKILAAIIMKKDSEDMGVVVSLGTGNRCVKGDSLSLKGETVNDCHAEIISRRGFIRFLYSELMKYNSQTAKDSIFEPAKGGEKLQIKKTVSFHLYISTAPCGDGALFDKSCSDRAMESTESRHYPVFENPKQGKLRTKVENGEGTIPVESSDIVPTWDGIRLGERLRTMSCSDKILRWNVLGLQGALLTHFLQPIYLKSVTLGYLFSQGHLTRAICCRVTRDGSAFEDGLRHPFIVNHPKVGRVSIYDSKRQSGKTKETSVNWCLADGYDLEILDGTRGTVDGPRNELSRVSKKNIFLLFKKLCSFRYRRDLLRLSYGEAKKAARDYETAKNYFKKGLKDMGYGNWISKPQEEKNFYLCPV
In words: Biacore SPR binding to ADAR1p110-WT. From the text: FIGS. 5A-5D show Biacore SPR analysis for binding of ADAR1i to ADAR1p110. (FIG. 5A) SPR analysis for binding kinetics of 8 compounds to ADAR1p110-WT. ADAR1 inhibition positive (ADAR1i-13, ADAR1i-120, ADAR1i-124) and negative compounds. (FIG. 5B, FIG. 5C) […] of SPR analysis for binding of ADAR1i-13 and ADAR1i-124 to ADAR1p110-WT and ADAR1p110-E912A as well as negative control proteins, GAPDH and HuR, are shown. […] ADAR1-E912, equivalent of ADAR2 E396, is located in the catalytic center.
No complete 3-D structure of ADAR1 is currently available. […] The glutamate E912 and E396 in ADAR1 and ADAR2, respectively, plays an important proton transfer function during hydrolytic deamination reaction (42, 43).

Another assay concerns HeLa-Nluc-edit cells. In words: First screen: FFL activity (cell viability/apoptosis) in reporter HeLa cells. To be noted: FIG. 2C.

The structures appear in SMILES notation.

ADAR, sequence (P55265 whole entry, species assumed): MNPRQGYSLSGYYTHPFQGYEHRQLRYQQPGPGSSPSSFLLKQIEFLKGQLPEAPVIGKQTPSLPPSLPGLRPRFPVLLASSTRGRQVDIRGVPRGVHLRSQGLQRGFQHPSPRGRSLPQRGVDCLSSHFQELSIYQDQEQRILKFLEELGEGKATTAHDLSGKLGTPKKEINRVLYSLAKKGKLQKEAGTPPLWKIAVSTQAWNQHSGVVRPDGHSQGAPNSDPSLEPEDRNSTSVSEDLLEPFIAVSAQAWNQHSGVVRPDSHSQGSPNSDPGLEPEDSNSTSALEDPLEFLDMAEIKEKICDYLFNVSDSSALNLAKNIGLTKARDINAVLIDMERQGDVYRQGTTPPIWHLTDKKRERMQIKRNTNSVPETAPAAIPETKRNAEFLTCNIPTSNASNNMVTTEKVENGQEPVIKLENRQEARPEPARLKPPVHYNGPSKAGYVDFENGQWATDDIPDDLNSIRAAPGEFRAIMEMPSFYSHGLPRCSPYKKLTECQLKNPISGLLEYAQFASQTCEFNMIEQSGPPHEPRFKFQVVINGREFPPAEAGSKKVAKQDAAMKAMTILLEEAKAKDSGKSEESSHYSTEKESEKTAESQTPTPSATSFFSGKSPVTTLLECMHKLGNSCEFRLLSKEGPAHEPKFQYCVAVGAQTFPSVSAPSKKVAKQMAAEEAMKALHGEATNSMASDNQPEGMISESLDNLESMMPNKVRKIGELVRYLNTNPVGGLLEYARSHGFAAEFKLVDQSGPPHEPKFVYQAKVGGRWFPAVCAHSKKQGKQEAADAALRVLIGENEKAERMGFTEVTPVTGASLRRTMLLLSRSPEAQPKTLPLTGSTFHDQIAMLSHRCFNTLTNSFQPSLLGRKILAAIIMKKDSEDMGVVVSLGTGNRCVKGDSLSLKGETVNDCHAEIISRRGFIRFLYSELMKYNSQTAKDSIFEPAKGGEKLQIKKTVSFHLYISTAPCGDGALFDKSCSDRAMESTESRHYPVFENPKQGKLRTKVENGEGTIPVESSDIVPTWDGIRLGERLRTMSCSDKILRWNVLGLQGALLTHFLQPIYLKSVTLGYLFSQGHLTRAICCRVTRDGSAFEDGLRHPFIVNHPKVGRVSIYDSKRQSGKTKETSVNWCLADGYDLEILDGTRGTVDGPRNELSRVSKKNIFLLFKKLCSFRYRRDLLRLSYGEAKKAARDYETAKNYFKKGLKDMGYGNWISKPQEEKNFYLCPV

In the case of `Nc1ncnc2c1nnn2[C@@H]1O[C@H](CO)[C@@H](O)[C@H]1O` [8-azaadenosine], at ADAR, the ADAR inhibition result is recorded as “not ADAR inhibitors”.

`Nc1ncnc2c1nc(Cl)n2[C@@H]1O[C@H](CO)[C@@H](O)[C@H]1O` [8-chloroadenosine]: the ADAR inhibition entry on ADAR is on record as “not ADAR inhibitors”.

Consider `N#Cc1ccc(NC(=O)c2nc3ccccc3[nH]2)cc1` [ADAR1i-122], for which, on ADAR1p110-WT, the “Binding to ADAR1p110-WT” value is reported as “did not bind”.

As to `N#Cc1ccc(NC(=O)c2nc3c(N)ncnc3[nH]2)cc1` [ADAR1i-123], the “Binding to ADAR1p110-WT” value at ADAR1p110-WT is recorded as “did not bind”.

On to `N#Cc1ccc(NC(=O)c2cc3ccccc3s2)cc1` [ADAR1i-125], for which the “Binding to ADAR1p110-WT” value at ADAR1p110-WT is “did not bind”.

Take `N#Cc1ccc(NC(=O)c2[nH]c3ccccc3c2Cl)cc1` [ADAR1i-126]: at ADAR1p110-WT, the “Binding to ADAR1p110-WT” value is listed as “did not bind”.

Regarding `COc1cccc2c1C(=O)c1c(O)c3c(c(O)c1C2=O)C[C@@](O)(C(=O)CO)C[C@@H]3O[C@H]1C[C@H](N)[C@H](O)[C@H](C)O1` [Doxorubicin], the “Acute apoptosis detected by reduction of FFL activity” value with HeLa-Nluc-edit cells is “induces acute apoptosis”.
